Results on 9 compounds are retold here after patent publication US20050119332A1, “Substituted thiophene compounds as modulators of protein tyrosine phosphatases (PTPases)” (priority 1998, published 2005).

Molecules are shown by their SMILES.

Test system in one data set: not given
Experiment: not given
Settings: not given
For `O=C(O)C(=O)Nc1sc(-c2ccccc2)cc1C(=O)O` [Example 19, 2-(Oxalyl-amino)-5-phenyl-thiophene-3-carboxylic acid], the melting point – broadly, the temperature of the solid-liquid transition – lay in the range of 238 to 240 °C.

Regarding `COc1ccc(Oc2ccc(-c3cc(NC(=O)C(=O)O)c(C(=O)O)s3)cc2)cc1` (hydrate or solvate) [Example 14, 5-(4-(4-Methoxy-phenoxy)-phenyl)-3-(oxalyl-amino)-thiophene-2-carboxylic acid], the melting point is 215 °C (dec.).

As to `O=C(CN1C(=O)c2ccccc2C1=O)NCc1cc(C(=O)O)c(NC(=O)C(=O)O)s1` [Example 41, 5-((2-(1,3-Dioxo-1.3-dihydro-isoindol-2-yl)-acetylamino)-methyl)-2-(oxalyl-amino)-thiophene-3-carboxylic acid], the melting point was 243 to 244 °C (dec.).

The compound `O=C(O)C(=O)Nc1scc(C2CCCCC2)c1C(=O)O` (hydrate or solvate) [Example 3, 4-Cyclohexyl-2-(oxalyl-amino)-thiophene-3-carboxylic acid] yielded a melting point of more than 250 °C.

Take `O=C(O)C(=O)Nc1scc(-c2ccccc2)c1C(=O)O` (hydrate or solvate) [Example 4, 2-(Oxalyl-amino)-4-phenyl-thiophene-3-carboxylic acid]: the melting point was 196 to 198 °C.

Turning to `O=C(O)C(=O)Nc1nn(Cc2ccccc2)cc1C(=O)O` (hydrate or solvate) [Example 2, 1-Benzyl-3-(oxalyl-amino)-1H-pyrazole-4-carboxylic acid], the melting point lay within 189 to 191 °C.

Turning to `O=C(O)C(=O)Nc1sc(Cc2ccccc2)cc1C(=O)O` [Example 17, 2-(Oxalyl-amino)-5-(phenyl-methyl)thiophene-3-carboxylic acid], the melting point was in the range of 230 to 231 °C.

A further data set concerns the target T1, PTP1B (truncated form, first 321 amino acids) (Homo sapiens, UniProt P18031).
T1 construct: a truncated form of PTP1B (corresponding to the first 321 amino acids); made in house; host or cells: E. coli
T1 sequence (P18031 1-321): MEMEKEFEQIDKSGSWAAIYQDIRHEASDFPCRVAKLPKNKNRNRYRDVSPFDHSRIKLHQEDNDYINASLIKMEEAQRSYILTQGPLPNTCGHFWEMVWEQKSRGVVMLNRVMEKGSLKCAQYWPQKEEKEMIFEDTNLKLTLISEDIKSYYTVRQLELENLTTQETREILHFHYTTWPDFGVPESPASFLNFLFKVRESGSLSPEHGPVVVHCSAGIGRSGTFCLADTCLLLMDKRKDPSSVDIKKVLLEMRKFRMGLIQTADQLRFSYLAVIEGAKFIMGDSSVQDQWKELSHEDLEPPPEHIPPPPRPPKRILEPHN
Briefly: Inhibition of truncated PTP1B, p-nitrophenyl phosphate substrate. It counts as biochemical. The following applies: p-nitrophenyl phosphate 0.16 to 10 mM; pH 5.5; 25° C., 60 minutes. How it is done: The compounds are evaluated for biological activity with a truncated form of PTP1B (corresponding to the first 321 amino acids), which was expressed in E. coli and purified to apparent homogeneity using published procedures well-known to those skilled in the art. The enzyme reactions are carried out using standard conditions essentially as described by Burke et al. (Biochemistry 35; 15989-15996 (1996)). The assay conditions are as follows. Appropriate concentrations of the compounds of the invention are added to the reaction mixtures containing different concentrations of the substrate, p-nitrophenyl phosphate (range: 0.16 to 10 mM—final assay concentration). The buffer used was 100 mM sodium acetate pH 5.5, 50 mM sodium chloride, 0.1% (w/v) bovine serum albumin and 5 mM dithiothreitol (total volume […]). The reaction was started by addition of the enzyme and carried out in microtiter plates at 25° C. for 60 minutes. The reactions are stopped by addition of NaOH. The enzyme activity was determined by measurement of the absorbance at 405 nm with appropriate corrections for absorbance at 405 nm of the compounds and p-nitrophenyl phosphate. The data are analyzed using nonlinear regression fit to classical Michaelis Menten enzyme kinetic models. Inhibition is expressed as Ki values in μM.
For `Cc1[nH]cc(NC(=O)C(=O)O)c1C(=O)O` [Example 1, 2-Methyl4-(oxalyl-amino)-1H-pyrrole-3-carboxylic acid], the Ki (in general, a measure of affinity in units of concentration, obtained from inhibition or displacement) is 200 µM.

Take `O=C(O)C(=O)Nc1scc(-c2ccccc2)c1C(=O)O` [Example 4, 2-(Oxalyl-amino)-4-phenyl-thiophene-3-carboxylic acid]: the Ki came out at 100 µM.
